Source: patent US8603966B2, “Amino acid-based compounds, their methods of use, and methods of screening” (The Administrators of the Tulane Educational Fund, priority 2009, dated 2013)
No end group written: not given here.

How the values were obtained:
[1] = tested on: Chinese Hamster Ovary (CHO) cells; test: Cell penetration by laser scanning confocal fluorescence microscopy; type: cell-based; conditions: for Cell Penetrating Half-time: SD ±10 min
Description: (§1) Laser Scanning Confocal Fluorescence Microscopy: Some translocating peptides were synthesized and labeled with the fluorescent dye TAMRA on either their amino terminus (N-labeled) or on a C-terminal cysteine residue (C-labeled). Live Chinese Hamster Ovary (CHO) cells were used to assess the ability of the labeled peptides to translocate across living cell membrane into the cells without causing toxicity.
CHO cells were incubated with peptide that was labeled on a C-terminal cysteine residue with the red fluorescent dye TAMRA. Cells and labeled peptide were incubated for 10 minutes in minimal media at 37° C. Cells were then washed to remove labeled peptide from the solution. The minimal media was replaced and 1 μM NBD (7-nitrobenz-2-oxa-1,3-diazol-4-yl) labeled lyso-phosphatidylthanolamine was added to the cells to label the plasma membrane. Labeled peptide concentrations for the panels are: A) 0 μM, B) 2 μM, C) 5 μM, and D) 10 μM. The scale bar represents 50 μm.
Panels A-G of FIG. 6 show representative CFM images monitoring the translocation of a labeled peptide with SEQ ID NO. 04 (synthesized with all D-amino acids for the chiral amino acids) in 10 minute intervals. CHO cells were incubated with the TAMRA-labeled peptide in minimal media and monitored over time at 25° C. without washing. The incubation times for the panels are: A) 5 min., B) 15 min., C) 25 min., D) 35 min., E) 45 min., F) 55 min., and G) 65 min. […] The scale bar represents 50 μm.
(§2) In this experiment, the externally added labeled peptide has not been washed away so the solution itself is fluorescent due to added TAMRA-labeled peptide. The black silhouettes in Panel A show the location of cells; before labeled-peptide entry, there is no fluorescence inside the cells.
All labeled peptides tested are able to translocate across living cell membranes and carry the large polar dye molecule TAMRA with them into the cell. Cell penetration was assessed by measuring TAMRA intensity inside CHO cells during incubation with the peptides in Table 4 and comparing intensity inside the cells with the external solution. Incubations were done at either 25° C. or 37° C., at concentrations listed. The half-times for penetration were determined, as shown in Table 5; the half-times have standard deviations of ±10 min. Based on final intensities inside the cells, all labeled peptides tested have similar cell penetrating activity at concentrations tested and at the temperatures tested. Toxicity was determined using the same conditions (e.g., solution and temperature) and concentrations as the cell penetration experiments. Toxicity was assessed by imaging at least 100 cells and counting cells with altered cell morphology, loss of confluence, or loss of adherence to substrate. In some experiments, the non-membrane permeable DNA dye SYTOX green was used to assess membrane integrity. In most cases, no measurable increase in toxicity or membrane integrity over control samples was detectable; this is indicated by the <5% in Table 5.

[2] = High throughput screen: Tb3+/DPA leakage from liposomes; conditions: labeled peptide:lipid 1:300; % of Tb3+ released after 60 minutes vs Triton-X 100 solubilized control (100% leakage)
Description: (§3) High throughput screening: For high throughput screening, 100 mM lipid bilayer vesicles were prepared by extrusion in the presence of 50 mM Tb^3+/citrate and 10 mg/mL chymotrypsin. The external Tb^3+/citrate and chymotrypsin were removed by gel filtration. To make the screening solution, 50 μM dipicolinic acid (DPA) and 1 μM α 1-antitrypsin were added to the external medium. The lipid composition was about 90% palmitoyloleoylphostadidylcholine (POPC) and about 10% palmitoyloleoyl phostadidylglycerol (POPG).
(§4) The combinatorial labeled peptide library was screened to identify and measure properties of translocation and leakage (e.g., pore-formation). Beads from the synthesis were exposed to longwave UV to cleave the peptide from the resin. The reaction added an amine group to the labeled peptide at the site of cleavage, yielding a Gln residue. Beads were then separated into individual wells of a multiwell plate and the peptides were extracted into 5 μl of dry dimethylsulfoxide overnight. This cleaved approximately 0.75 nmol of labeled peptide from each bead, about half of the total labeled peptide on the bead. A chymotrypsin cleavage site was incorporated into the labeled peptides' design (FIG. 1) and when hydrolysis occurs the AMC fluorophore is released. The spectra of the free AMC fluorophore is red-shifted as compared to that of the peptide-AMC conjugate (FIG. 2). When a labeled peptide translocates, the chymotrypsin inside the vesicle catalyzes the hydrolysis of the peptide bond contributed by the AMC moiety (FIG. 3B). Translocation was monitored by the rate of accumulation of free AMC. In the case of leakage, interaction of the lanthanide metal terbium III (Tb^3+) with the aromatic chelator dipiccolinic acid (DPA) creates a complex that is fluorescent at low μM concentrations (FIG. 3A). By entrapping Tb^3+ and chymotrypsin inside the liposomes and then adding dipiccolinic acid and a chymotrypsin inhibitor to the external medium, a visual reporter system for translocation with and without membrane leakage was created that can detect as little as 5 pmol of labeled peptide.
(§5) To screen for solubility, the labeled peptide DMSO solution was diluted and incubated for 30 minutes before adding the screening solution. Free-AMC fluorescence was monitored at 450 nm emission (350 nm excitation) for 30 minutes and then the wells were read at 460 nm emission (280 nm excitation) for Tb^3+/DPA complex formation. Wells with the highest free AMC accumulation and/or Tb^3+/DPA fluorescence were sent to the Michigan State University Protein Core Facility for sequencing.
(§6) The screen was performed at a labeled peptide to lipid ratio of 1:300. […] In FIG. 4, the oval labeled “Leakage” indicates labeled peptides that show mostly leakage with a minimum of the relative rate of free AMC production. The oval labeled “Translocation” indicates labeled peptides that show a higher relative rate of free AMC production with a minimum of leakage. Roughly 24,000 beads were screened at 1:300 labeled peptide:lipid, a sequence coverage space of 90%. The labeled peptides indicating the highest translocation and highest % leakage were identified by Edman sequencing from the beads.
(§7) Free-AMC fluorescence was monitored at 450 nm emission (350 nm excitation) for 30 minutes and then the wells were read at 460 nm emission (280 nm excitation) for Tb^3+/DPA complex formation. Percent leakage is the % of Tb^3+ released from lipid vesicles after 60 minutes, compared to a Triton-X 100 detergent-solubilized control (100% leakage). […] Free AMC was determined in real time by monitoring the fluorescence of free AMC after vesicle addition using a BioTek Synergy II fluorescence plate reader. The two assays were performed on the same samples.

[3] = High throughput screen: translocation into liposomes (free AMC production by entrapped chymotrypsin); conditions: labeled peptide:lipid 1:300; rate divided by rate in chymotrypsin solution without inhibitor and liposomes
Description: as §3, §4, §5, §6, §7

[4] = tested on: Chinese Hamster Ovary (CHO) cells; type: cell-based
Source text: as §1, §2
All labeled peptides tested are able to translocate across living cell membranes and carry the large polar dye molecule TAMRA with them into the cell. Cell penetration was assessed by measuring TAMRA intensity inside CHO cells during incubation with the peptides in Table 4 and comparing intensity inside the cells with the external solution. Incubations were done at either 25° C. or 37° C., at concentrations listed. The half-times for penetration were determined, as shown in Table 5; the half-times have standard deviations of ±10 min. […] Toxicity was determined using the same conditions (e.g., solution and temperature) and concentrations as the cell penetration experiments. […]

Row | Substance | % Leakage [2] | Relative Rate of Free AMC Production [3] | further results
1 | Arg-Arg-Ile-Leu-Leu-Gln-Leu-Leu-Arg-Gly-Gln-Phe (RRILLQLLRGQF; not fully specified (C-terminus); printed as Arg-Arg-Ile-Leu-Leu-Gln-Leu-Leu-Arg-Gly-Gln-Phe) [SEQ ID NO: 10 (C-labeled), peptide labeled with the dye TAMRA on a C-terminal cysteine] |  |  | Cell Penetrating Half-time ([1]; 25° C., 1.7-10 μM): 15 min
2 | Arg-Arg-Ile-Leu-Leu-Gln-Leu-Leu-Leu-Gly-Gln-Phe (RRILLQLLLGQF; not fully specified (C-terminus); printed as Arg-Arg-Ile-Leu-Leu-Gln-Leu-Leu-Leu-Gly-Gln-Phe) [SEQ ID NO: 15 (C-labeled), peptide labeled with the dye TAMRA on a C-terminal cysteine] |  |  | Cell Penetrating Half-time ([1]; 37° C., 1.7-5 μM): <30 min
3 | Arg-Lys-Gly-Leu-Leu-Gln-Leu-Leu-Leu-Gly-Gln-Phe (RKGLLQLLLGQF; not fully specified (C-terminus); printed as Arg-Lys-Gly-Leu-Leu-Gln-Leu-Leu-Leu-Gly-Gln-Phe) [SEQ ID NO: 18 (C- labeled), peptide labeled with the dye TAMRA on a C-terminal cysteine] |  |  | Cell Penetrating Half-time ([1]; 37° C., 1.7-5 μM): <30 min
4 | PKILLFKLLGQF [SEQ ID NO: 12] | 1.6% | 1.7 | 
5 | PKQLLRLLLGQF [SEQ ID NO: 20] | 90% | 0.4 | 
6 | PLGYLFLLRGQF [SEQ ID NO: 05] | 6.0% | 1.9 | 
7 | PLILLRLLRGQF [SEQ ID NO: 03] | 1.7% | 2.1 | 
8 | PLIYPFLRLGQF [SEQ ID NO: 09] | −0.2% | 1.7 | 
9 | PLRLLRLLRGQF [SEQ ID NO: 11] | 5.2% | 2.0 | 
10 | PLRLRFLLRGQF [SEQ ID NO: 07] | −4.5% | 1.6 | 
11 | PRILLRLLLGQF [SEQ ID NO: 16] | 89% | 1.0 | 
12 | PRIYLRLLLGQF [SEQ ID NO: 14] | 82% | 1.1 | 
13 | PRKLLQLLLGQF [SEQ ID NO: 13] | 86% | 0.6 | 
14 | Pro-Leu-Ile-Leu-Leu-Arg-Leu-Leu-Arg-Gly-Gln-Phe (PLILLRLLRGQF; not fully specified (C-terminus); printed as Pro-Leu-Ile-Leu-Leu-Arg-Leu-Leu-Arg-Gly-Gln-Phe) [SEQ ID NO: 03 (C-labeled), peptide labeled with the dye TAMRA on a C-terminal cysteine] |  |  | Cell Penetrating Half-time ([1]; 37° C., 1.7-5 μM): <30 min
15 | Pro-Leu-Ile-Tyr-Leu-Arg-Leu-Leu-Arg-Gly-Gln-Phe |  |  | half-time for cell entry ([1]; FIG. 6, 25° C., minimal media, without washing): 20 to 30 min; time at which cell penetration occurs ([1]; FIG. 6, 25° C., without washing): within a few minutes; toxicity (shape and coherence of the cells) [4]: toxicity is minimal
16 | Pro-Leu-Ile-Tyr-Leu-Arg-Leu-Leu-Arg-Gly-Gln-Phe [SEQ ID NO: 04 (C-labeled)] |  |  | Cell Penetrating Half-time ([1]; 37° C., 1.7-10 μM): 20 min
17 | Pro-Leu-Ile-Tyr-Leu-Arg-Leu-Leu-Arg-Gly-Gln-Phe [SEQ ID NO: 04] | 2.8% | 2.3 | 
18 | RKGLLQLLLGQF [SEQ ID NO: 18] | 92% | 0.3 | 
19 | RKILLRLLRGQF [SEQ ID NO: 02] | −3.0% | 1.6 | 
20 | RKRLLQLLLGQF [SEQ ID NO: 21] | 84% | 0.7 | 
21 | RLILLFRRLGQF [SEQ ID NO: 06] | 7.2% | 2.1 | 
22 | RLILRQLLLGQF [SEQ ID NO: 19] | 102% | 1.6 | 
23 | RLILRQLLRGQF [SEQ ID NO: 17] | 115% | 1.6 | 
24 | RLIRLFLLRGQF [SEQ ID NO: 08] | 5.0% | 2.1 | 
25 | RLIYLRLLRGQF [SEQ ID NO: 01] | 24% | 3.4 | 
26 | RRILLQLLLGQF [SEQ ID NO: 15] | 105% | 0.0 | 
27 | RRILLQLLRGQF [SEQ ID NO: 10] | 26% | 2.3 | 
